{"source": "patent US20260049101A1", "about": "“TOPICAL TREATMENT OF SKIN CANCER USING OLIGOPEPTIDES” (BACOBA AG, priority 2022, published 2026)", "note": "Numbered stars: 1 amine (or outer) side, 2 acyl side, 3 side chain; on linkers, the order of the positions; unused ones are H or OH. Square brackets hold non-standard residues; d marks the D form. Peptide text beside a SMILES is read from it. * marks the point of attachment. X2 = COc1ccc2nc(C[C@H](N[*:1])C(=O)[*:2])sc2c1; NH(1-CH2NMe2-cBu) = CN(C)CC1(N*)CCC1; Gly(octyl) = CCCCCCCC[C@H](N)C(=O)O; Oxazole4CO(2-Me) = Cc1nc(C(=O)*)co1; Benzoyl(4-F) = O=C(c1ccc(F)cc1)*; hCha = N[C@@H](CCC1CCCCC1)C(=O)O; Cha = N[C@@H](CC1CCCCC1)C(=O)O; Nle = CCCC[C@H](N)C(=O)O; NHCH2CH2NHMe = CNCCN*; Aib = CC(C)(N)C(=O)O; βAla = NCCC(=O)O", "data": [{"system": "cutaneous squamous cell carcinoma cell line SCC12", "assay": "In vitro anti-proliferative assay (resazurin) in SCC12", "format": "cell-based", "conditions": "SCC12, 72 hours", "text": "Methodology. The cutaneous squamous cell carcinoma cell culture SCC12 was cultivated in keratinocyte-SFM media (KSFM, Cat #17005042, Gibco) supplemented with human recombinant epidermal growth factor 1-53 (EGF 1-53) and bovine pituitary extract (BFE).\nVehicle treated wells were set to 100% viability.", "units": {"IC50": "nM"}, "values": [{"smiles": "Cc1nc(C(=O)N2CCC[C@H]2C(=O)N[C@@H](CCC2CCCCC2)C(=O)N[C@@H](CC(C)C)C(=O)NC(C)(C)C(=O)N[C@@H](CC(C)C)C(=O)N[C@@H](CC(C)C)C(=O)NC(C)(C)C(=O)NC(C)(C)C(=O)NCCC(=O)NC2(CN(C)C)CCC2)co1", "note": "[Compound 6025, (2S)-2-[(2S)-4-cyclohexyl-2-{[(2S)-1-(2-methyl-1,3-oxazole-4-carbonyl)pyrrolidin-2-yl]formamido}butanamido]-N-(1-{[(1S)-1-{[(1S)-1-({1-[(1-{[2-({1-[(dimethylamino)methyl]cyclobutyl}carbamoyl)ethyl]carbamoyl}-1-methylethyl)carbamoyl]-1-methylethyl}carbamoyl)-3-methylbutyl]carbamoyl}-3-methylbutyl]carbamoyl}-1-methylethyl)-4-methylpentanamide] ({Oxazole4CO(2-Me)}-P[hCha]L[Aib]LL[Aib][Aib][βAla]-{NH(1-CH2NMe2-cBu)})", "IC50": 396}, {"smiles": "CCCCCCCC[C@H](NC(=O)[C@@H]1CCCN1C(=O)c1coc(C)n1)C(=O)N[C@@H](CC(C)C)C(=O)NC(C)(C)C(=O)N[C@@H](CC(C)C)C(=O)N[C@@H](CC(C)C)C(=O)NC(C)(C)C(=O)NC(C)(C)C(=O)NCCC(=O)NC1(CN(C)C)CCC1", "note": "[Compound 6253, (2S)—N-[(1S)-1-[(1-{[(1S)-1-{[(1S)-1-({1-[(1-{[2-({1-[(dimethylamino)methyl]cyclobutyl}carbamoyl)ethyl]carbamoyl}-1-methylethyl)carbamoyl]-1-methylethyl}carbamoyl)-3-methylbutyl]carbamoyl}-3-methylbutyl]carbamoyl}-1-methylethyl)carbamoyl]-3-methylbutyl]-2-{[(2S)-1-(2-methyl-1,3-oxazole-4-carbonyl)pyrrolidin-2-yl]formamido}decanamide] ({Oxazole4CO(2-Me)}-P[Gly(octyl)]L[Aib]LL[Aib][Aib][βAla]-{NH(1-CH2NMe2-cBu)})", "IC50": 140}, {"smiles": "Cc1nc(C(=O)N2CCC[C@H]2C(=O)N[C@@H](Cc2ccccc2)C(=O)N[C@@H](CC(C)C)C(=O)NC(C)(C)C(=O)N[C@@H](CC(C)C)C(=O)N[C@@H](CC(C)C)C(=O)NC(C)(C)C(=O)NC(C)(C)C(=O)NCCC(=O)NC2(CN(C)C)CCC2)co1", "note": "[Compound 6328, (2S)—N-(1-{[(1S)-1-{[(1S)-1-({1-[(1-{[2-({1-[(dimethylamino)methyl]cyclobutyl}carbamoyl)ethyl]carbamoyl}-1-methylethyl)carbamoyl]-1-methylethyl}carbamoyl)-3-methylbutyl]carbamoyl}-3-methylbutyl]carbamoyl}-1-methylethyl)-4-methyl-2-[(2S)-2-{[(2S)-1-(2-methyl-1,3-oxazole-4-carbonyl)pyrrolidin-2-yl]formamido}-3-phenylpropanamido]pentanamide] ({Oxazole4CO(2-Me)}-PFL[Aib]LL[Aib][Aib][βAla]-{NH(1-CH2NMe2-cBu)})", "IC50": 1660}, {"smiles": "CCCC[C@H](NC(=O)[C@@H]1CCCN1C(=O)c1coc(C)n1)C(=O)N[C@@H](CC(C)C)C(=O)NC(C)(C)C(=O)N[C@@H](CC(C)C)C(=O)N[C@@H](CC(C)C)C(=O)NC(C)(C)C(=O)NC(C)(C)C(=O)NCCC(=O)NC1(CN(C)C)CCC1", "note": "[Compound 6781, (2S)—N-[(1S)-1-[(1-{[(1S)-1-{[(1S)-1-({1-[(1-{[2-({1-[(dimethylamino)methyl]cyclobutyl}carbamoyl)ethyl]carbamoyl}-1-methylethyl)carbamoyl]-1-methylethyl}carbamoyl)-3-methylbutyl]carbamoyl}-3-methylbutyl]carbamoyl}-1-methylethyl)carbamoyl]-3-methylbutyl]-2-{[(2S)-1-(2-methyl-1,3-oxazole-4-carbonyl)pyrrolidin-2-yl]formamido}hexanamide] ({Oxazole4CO(2-Me)}-P[Nle]L[Aib]LL[Aib][Aib][βAla]-{NH(1-CH2NMe2-cBu)})", "IC50": 6850}, {"smiles": "CCCCCCCC[C@H](NC(=O)[C@@H]1CCCN1C(=O)c1coc(C)n1)C(=O)N[C@@H](CC(C)C)C(=O)NC(C)(C)C(=O)N[C@@H](CC(C)C)C(=O)N[C@@H](CC(C)C)C(=O)NC(C)(C)C(=O)NC(C)(C)C(=O)NCCC(=O)NCCNC", "note": "[Compound 7058, (2S)-2-{[(2S)-1-(2-methyl-1,3-oxazole-4-carbonyl)pyrrolidin-2-yl]formamido}-N-[(1S)-3-methyl-1-[(1-methyl-1-{[(1S)-3-methyl-1-{[(1S)-3-methyl-1-{[1-methyl-1-({1-methyl-1-[(2-{[2-(methylamino)ethyl]carbamoyl}ethyl)carbamoyl]ethyl}carbamoyl)ethyl]carbamoyl}butyl]carbamoyl}butyl]carbamoyl}ethyl)carbamoyl]butyl]decanamide] ({Oxazole4CO(2-Me)}-P[Gly(octyl)]L[Aib]LL[Aib][Aib][βAla]-NHCH2CH2NHMe)", "IC50": 717}, {"smiles": "Cc1nc(C(=O)N2CCC[C@H]2C(=O)N[C@@H](CC2CCCCC2)C(=O)N[C@@H](CC(C)C)C(=O)NC(C)(C)C(=O)N[C@@H](CC(C)C)C(=O)N[C@@H](CC(C)C)C(=O)NC(C)(C)C(=O)NC(C)(C)C(=O)NCCC(=O)NC2(CN(C)C)CCC2)co1", "note": "[Compound 7059, (2S)-2-[(2S)-3-cyclohexyl-2-{[(2S)-1-(2-methyl-1,3-oxazole-4-carbonyl)pyrrolidin-2-yl]formamido}propanamido]-N-(1-{[(1S)-1-{[(1S)-1-({1-[(1-{[2-({1-[(dimethylamino)methyl]cyclobutyl}carbamoyl)ethyl]carbamoyl}-1-methylethyl)carbamoyl]-1-methylethyl}carbamoyl)-3-methylbutyl]carbamoyl}-3-methylbutyl]carbamoyl}-1-methylethyl)-4-methylpentanamide] ({Oxazole4CO(2-Me)}-P[Cha]L[Aib]LL[Aib][Aib][βAla]-{NH(1-CH2NMe2-cBu)})", "IC50": 500}, {"smiles": "COc1ccc(-c2ccc(OC[C@H](NC(=O)[C@@H]3CCCN3C(=O)c3ccc(F)cc3)C(=O)N[C@@H](CC(C)C)C(=O)NC(C)(C)C(=O)N[C@@H](CC(C)C)C(=O)N[C@@H](CC(C)C)C(=O)NC(C)(C)C(=O)NC(C)(C)C(=O)NCCC(=O)NC3(CN(C)C)CCC3)cc2)cc1", "note": "[Compound 7824, (2S)—N-{1-[(1-{[2-({1-[(dimethylamino)methyl]cyclobutyl}carbamoyl)ethyl]carbamoyl}-1-methylethyl)carbamoyl]-1-methylethyl}-2-[(2S)-2-{2-[(2S)-2-[(2S)-2-{[(2S)-1-(4-fluorobenzoyl)pyrrolidin-2-yl]formamido}-3-({4′-methoxy-[1,1′-biphenyl]-4-yl}oxy)propanamido]-4-methylpentanamido]-2-methylpropanamido}-4-methylpentanamido]-4-methylpentanamide]", "IC50": 375}, {"smiles": "COc1ccc2nc(C[C@H](NC(=O)[C@@H]3CCCN3C(=O)c3ccc(F)cc3)C(=O)N[C@@H](CC(C)C)C(=O)NC(C)(C)C(=O)N[C@@H](CC(C)C)C(=O)N[C@@H](CC(C)C)C(=O)NC(C)(C)C(=O)NC(C)(C)C(=O)NCCC(=O)NC3(CN(C)C)CCC3)sc2c1", "note": "[Compound 7844, (2S)—N-(1-{[(1S)-1-{[(1S)-1-({1-[(1-{[2-({1-[(dimethylamino)methyl]cyclobutyl}carbamoyl)ethyl]carbamoyl}-1-methylethyl)carbamoyl]-1-methylethyl}carbamoyl)-3-methylbutyl]carbamoyl}-3-methylbutyl]carbamoyl}-1-methylethyl)-2-[(2S)-2-{[(2S)-1-(4-fluorobenzoyl)pyrrolidin-2-yl]formamido}-3-(6-methoxy-1,3-benzothiazol-2-yl)propanamido]-4-methylpentanamide] ({Benzoyl(4-F)}-P[X2]L[Aib]LL[Aib][Aib][βAla]-{NH(1-CH2NMe2-cBu)})", "IC50": 546}]}]}
